From PubChem BioAssay (NCI)
Where “and” joins values, the source holds several entries; their conditions need not be identical. Identical values can stand only once.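 A five-concentration, 48-hour dose response in 96-well plates underlies each endpoint, interpolated linearly between surrounding concentrations. Here, GI50 denotes the concentration required for 50% inhibition of growth. TGI is the concentration that stops growth completely.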

Columns and labels:
Test in all cases: NCI-60 cell line screen, 48 h
BT-549 breast = test system: BT-549 breast
MOLT-4 leukemia = test system: MOLT-4 leukemia
NCI-H226 lung = test system: NCI-H226 lung
MALME-3M melanoma = test system: MALME-3M melanoma
K-562 leukemia = test system: K-562 leukemia
SK-OV-3 ovarian = test system: SK-OV-3 ovarian
UACC-257 melanoma = test system: UACC-257 melanoma
RPMI-8226 leukemia = test system: RPMI-8226 leukemia
LOX IMVI melanoma = test system: LOX IMVI melanoma
HL-60(TB) leukemia = test system: HL-60(TB) leukemia

SMILES	GI50 (BT-549 breast)	TGI (BT-549 breast)	GI50 (MOLT-4 leukemia)	TGI (MOLT-4 leukemia) [µM]	GI50 (NCI-H226 lung)	TGI (NCI-H226 lung)	GI50 (MALME-3M melanoma)	TGI (MALME-3M melanoma)	GI50 (K-562 leukemia)	TGI (K-562 leukemia)	GI50 (SK-OV-3 ovarian)	TGI (SK-OV-3 ovarian)	GI50 (UACC-257 melanoma)	TGI (UACC-257 melanoma)	GI50 (RPMI-8226 leukemia)	TGI (RPMI-8226 leukemia)	GI50 (LOX IMVI melanoma)	TGI (LOX IMVI melanoma)	GI50 (HL-60(TB) leukemia)	TGI (HL-60(TB) leukemia)
COC(=O)[C@@H](C)C[C@H](Cc1ccccc1)NC(=O)c1nc([C@@H](C[C@H](C(C)C)N(C)C(=O)[C@@H](NC(=O)[C@H]2CC(=O)CCN2C)C(C)C)OC(C)=O)sc1C(C)C	0.0971 µM	2.7 µM	0.532 µM	> 16.7	0.415 µM	2.95 µM	0.119 µM	> 16.7 µM	0.0684 µM	> 16.7 µM	0.809 µM	> 16.7 µM	> 10.8 µM	> 16.7 µM	0.056 µM	4.38 µM	0.11 µM	> 16.7 µM	0.0529 µM	0.227 µM
CC(=O)O[C@@H]1[C@H]2O[C@H]2[C@H]2O[C@@]2(COC(=O)c2ccccc2)[C@H]1OC(C)=O	–	> 100 µM	–	> 100	–	> 100 µM	–	> 100 µM	–	> 100 µM	–	> 100 µM	–	> 100 µM	–	> 100 µM	–	> 100 µM	–	> 100 µM
Nc1nc(-c2ccccn2)c(-c2ccc3ncccc3n2)s1	> 25 µM	> 25 µM	> 25 µM	> 25	> 25 µM	> 25 µM	> 25 µM	> 25 µM	> 25 µM	> 25 µM	> 25 µM	> 25 µM	> 25 µM	> 25 µM	> 25 µM	> 25 µM	> 25 µM	> 25 µM	> 25 µM	> 25 µM
O=C(/C=C/c1c[nH]c2ccccc12)c1ccccc1O	–	28.3 µM	–	37	–	42.8 µM	–	29.3 µM	–	> 100 µM	–	33 µM	–	31.5 µM	–	62.1 µM	–	21.7 µM	–	> 100 µM
Nc1c2ccccc2nc2ccccc12	4.04 µM and 5.12 µM	15.4 µM and 26.2 µM	1.68 µM and 2.21 µM	11.1	1.24 µM and 2.81 µM	3.21 µM and 8.24 µM	1.86 µM and 3.69 µM	3.66 µM and 9.62 µM	3.16 µM and 3.06 µM	12.5 µM and 25.1 µM	2.18 µM and 3.22 µM	9.21 µM and 22 µM	1.54 µM and 3.21 µM	3.06 µM and 10.1 µM	3.26 µM and 1.48 µM	18.6 µM and 5.94 µM	1.77 µM and 1.69 µM	5.12 µM and 3.5 µM	3.05 µM and 1.85 µM	6.99 µM and 10 µM
CCn1nc(C#Cc2c(C)ccc3c(Nc4ccc(Cl)cc4)nccc23)c2c(N)ncnc21	5.27 µM	> 100 µM	4.32 µM	> 100	3.29 µM	12.9 µM	2.1 µM	7.09 µM	2.18 µM	> 100 µM	4.38 µM	> 100 µM	3.54 µM	38.7 µM	3.77 µM	> 100 µM	1.81 µM	> 100 µM	0.598 µM	> 100 µM
CCCCCCCCCCCCNC(=O)N[C@H](C(=O)N[C@H]1/C=C/OCCNC(=O)/C=C/[C@H](C(C)C)NC1=O)C(C)C	2.19 µM	33.6 µM	3.26 µM	> 100	4.53 µM	> 19.7 µM	39.3 µM	> 100 µM	9.15 µM	> 100 µM	> 75.3 µM	> 100 µM	20 µM	> 93.7 µM	0.389 µM	59.4 µM	9.4 µM	36.4 µM	14.7 µM	55.7 µM
COc1ncc(-c2ccc3nc(N)n(-c4ccccc4C(F)(F)F)c(=O)c3c2)cc1S(=O)(=O)Nc1ccc(F)cc1F	1.57 µM	6.7 µM	3.85 µM	56.1	8.68 µM	> 100 µM	6.53 µM	34.4 µM	5.73 µM	> 100 µM	4.85 µM	> 100 µM	7.81 µM	24.5 µM	0.3 µM	2.54 µM	0.224 µM	0.761 µM	1.42 µM	5.24 µM
C=C1C(=O)O[C@H]2[C@H]1CC/C(COC(=O)NCc1ccc(Cn3c(=O)sn(CCCI)c3=O)cc1)=C\CC[C@@]1(C)O[C@@H]21	1.37 µM	2.84 µM	0.294 µM	3.19	14.1 µM	37.7 µM	1.39 µM	3.21 µM	0.342 µM	> 100 µM	13.6 µM	28.3 µM	1.79 µM	3.67 µM	0.899 µM	3.57 µM	1.4 µM	2.81 µM	0.307 µM	2.71 µM
CC(=O)Nc1ccc(S(=O)(=O)N2C(=O)CCC2C(=O)Nc2ccccc2)cc1 (configuration not stated)	1.57 µM	14.6 µM	1.96 µM	14.5	3.16 µM	20.9 µM	3.38 µM	18.8 µM	0.258 µM	10.2 µM	2.87 µM	18.8 µM	1.34 µM	17.2 µM	0.83 µM	15 µM	0.0482 µM	13.2 µM	1.64 µM	15.2 µM
COc1ccc2c(c1)OCC1c3cc(OC)ccc3OC21 (configuration not stated)	34.4 µM	> 100 µM	8.94 µM	61.1	27.3 µM	> 100 µM	> 100 µM	> 100 µM	56.7 µM	> 100 µM	> 100 µM	> 100 µM	> 100 µM	> 100 µM	21.5 µM	> 100 µM	45.9 µM	> 100 µM	4.93 µM	> 100 µM
COc1cc(C(=O)N[C@@H]2CCCN(C)C2)ccc1Nc1ncc2c(n1)N(C1CCCC1)CC(C)(C)C(=O)N2C	0.73 µM	18 µM	0.0417 µM	3.89	0.633 µM	21.9 µM	2.03 µM	10.6 µM	0.0378 µM	3.19 µM	0.0484 µM	2.42 µM	0.285 µM	2.63 µM	1.25 µM	19.4 µM	0.0541 µM	1.87 µM	0.0266 µM	0.0788 µM
O=c1[nH]c2c(ccc3cnccc32)c2c1CCC2	0.172 µM	0.532 µM	0.386 µM	> 100	0.252 µM	0.897 µM	0.312 µM	0.951 µM	0.657 µM	> 100 µM	1.7 µM	> 100 µM	0.245 µM	0.833 µM	0.244 µM	1.18 µM	0.282 µM	> 33.2 µM	0.272 µM	–
COc1cc2nc(NC3CCC3)nc(NC3CCN(C(C)C)CC3)c2cc1OC	1.71 µM	3.7 µM	2.83 µM	8.48	6 µM	21.8 µM	1.76 µM	3.23 µM	0.902 µM	10.2 µM	8 µM	33.7 µM	1.89 µM	3.78 µM	1.71 µM	4.06 µM	1.72 µM	3.23 µM	2.06 µM	4.05 µM
N/C(=N\O)c1cn(C2OC(CO)C(O)C2O)c2ncnc(N)c12 (configuration not stated)	0.311 µM	17.7 µM	0.277 µM	1.64	0.446 µM	49.6 µM	0.0578 µM	0.243 µM	0.281 µM	> 100 µM	0.0884 µM	1.76 µM	0.177 µM	0.705 µM	0.162 µM	0.625 µM	0.153 µM	0.501 µM	0.117 µM	0.858 µM
CCN(CC)c1ccc(C=C2C(=O)NC(=S)NC2=O)cc1	2.27 µM	4.74 µM	3.16 µM	10.4	3.24 µM	10.2 µM	2.98 µM	7.49 µM	3.1 µM	10.7 µM	14.8 µM	28 µM	6.46 µM	19.4 µM	2.15 µM	5.49 µM	2.12 µM	4.57 µM	2.6 µM	7.58 µM
CC1SC(c2ccc(OCc3ccccc3)cc2)N(NC(=O)C(O)(c2ccccc2)c2ccccc2)C1=O (configuration not stated)	5.45 µM	22.4 µM	2.02 µM	5.58	3.79 µM	15.8 µM	2.15 µM	10.5 µM	3.36 µM	> 100 µM	9.49 µM	33.2 µM	7.39 µM	21.3 µM	2.05 µM	6.13 µM	3.87 µM	14.6 µM	1.85 µM	5.02 µM
CNC(=S)N/N=C/CSC/C=N/NC(=S)NC	> 100 µM	> 100 µM	> 100 µM	> 100	> 100 µM	> 100 µM	> 100 µM	> 100 µM	3.08 µM	> 100 µM	> 100 µM	> 100 µM	> 100 µM	> 100 µM	> 100 µM	> 100 µM	> 60.7 µM	> 100 µM	> 62.3 µM	> 100 µM
CS(=O)c1cc(=O)c2ccccc2s1 (configuration not stated)	–	27.6 µM	–	6.36	–	35.5 µM	–	4.53 µM	–	7.57 µM	–	39.4 µM	–	7.26 µM	–	9.08 µM	–	9.02 µM	–	4.63 µM
CN1CC[C@H](N(C)C(=O)N2CC(c3cc(F)ccc3F)=C[C@@]2(CO)c2ccccc2)[C@H](F)C1	0.0421 µM	37.7 µM	0.0377 µM	> 100	40.4 µM	> 100 µM	–	27.9 µM	0.00744 µM	> 100 µM	0.00588 µM	> 100 µM	–	41.4 µM	0.0294 µM	40.8 µM	0.0415 µM	> 100 µM	0.0337 µM	> 100 µM
